Assay results: patent US20240294697A1, “AMPHIPHILIC OLIGOMERS AND SELF-ASSEMBLING HYDROGELS FORMED THEREFROM” (THE GOVERNING COUNCIL OF THE UNIVERSITY OF TORONTO, priority 2021, published 2024)

Test system: primary chondrocytes
Details: H2O2 between 25 and 100 μM
Description: To prepare for this experiment, specific concentrations of H2O2 and ascorbic acid were prepared by testing a range of concentrations and incubating at 37° C. On the following day, 200 μL of each condition was treated to pre-seeded primary chondrocytes at passage 6 and evaluated for its metabolic activity as per below. Each condition was performed in triplicate.
Cryopreserved Human Chondrocytes (HCH) were purchased from PromoCell at passage 2 (P2). HCH were cultured in proprietary chondrocyte growth medium and supplemented with 10% Growth Medium Supplement by PromoCell at 37° C. and 5% CO2. The medium was changed every 2-3 days until the cells achieved 80% confluence. Once the cells reached confluence, the chondrocytes were treated with the DetachKit (purchased by PromoCell). […]
Following the 24-hour exposure of the leachable material and controls, the treated media was aspirated and 110 μL of a 10% solution (v/v) of WST-1 reagent in media was added to each well and incubated for two hours to ensure that all viable cells converted the tetrazolium salt to formazan. The absorbance of formazan was read on a Plate Reader (Perkin Elmer) at 450 nm. The absorbance values of all treatments and the positive control were normalized to cells treated with media.

## OO [H2O2, hydrogen peroxide]
  concentrations evidencing cell toxicity: above 50 μM
  concentrations resulting in metabolically active cells: below 50 μM
